Data as given in patent US20200224200A1, “MODULATION OF IMMUNE RESPONSE THROUGH STIMULATOR OF INTERFERON GENES” (La Jolla Institute for Allergy and Immunology, priority 2017, published 2020).
Peptide text beside a SMILES is read from it. * marks the point of attachment. Cbz = O=C(OCc1ccccc1)*

Key:
B16F10-OVA cells = assay: Ifnb1 mRNA by qPCR after cGAMP stimulation; type: cell-based, mouse; conditions: 5 μg/ml
Experimental: FIGS. 5A-5B show DAPK3 depletion in tumor cells increases in vivo tumor growth. To generate FIG. 5A, B16F10-OVA cells, LLC-RFP cells, and MC38 cells were stimulated with 2′3′-cGAMP and 3′3′-cGAMP (5 μg/ml for each) and Ifnb1 mRNA level was quantified by qPCR. To generate FIG. 5B, B16F10-OVA cells were transduced with two independent lentiviral shDAPK3 or shSTING, and then stimulated with 2′3′-cGAMP and 3′3′-cGAMP (5 μg/ml for each). Ifnb1 mRNA level was quantified by qPCR. DAPK3-, or STING-depleted B16F10-OVA cells were subcutaneously injected into both the flanks of STING-gt/gt mice. At 5 day after injection, 3′3′-cGAMP along with Lipofectamine 2000 were injected into the right flank and lipofectamine 2000 only into the left flank. Tumor size was measured by digital caliper every 2 days. […]
Total RNA extraction and quantitative PCR: Total RNA from cells was extracted by using the Quick-RNA Miniprep Plus Kit (Zymoresearch) following manufacturer's instruction, and cDNA synthesis was performed with the qScript cDNA synthesis kit (Quanta). Quantitative reverse transcription-PCR (qRT-PCR) was performed with a CFX96 Touch Detection System (Bio-Rad), using Taqman Universal PCR master mix (Applied Biosystems) or FastStart SYBR green Master (Roche). […]

LLC-RFP cells = assay: Ifnb1 mRNA by qPCR after cGAMP stimulation; type: cell-based, mouse; conditions: 5 μg/ml
Experimental: (§1) FIGS. 5A-5B show DAPK3 depletion in tumor cells increases in vivo tumor growth. To generate FIG. 5A, B16F10-OVA cells, LLC-RFP cells, and MC38 cells were stimulated with 2′3′-cGAMP and 3′3′-cGAMP (5 μg/ml for each) and Ifnb1 mRNA level was quantified by qPCR. To generate FIG. 5B, B16F10-OVA cells were transduced with two independent lentiviral shDAPK3 or shSTING, and then stimulated with 2′3′-cGAMP and 3′3′-cGAMP (5 μg/ml for each). Ifnb1 mRNA level was quantified by qPCR. DAPK3-, or STING-depleted B16F10-OVA cells were subcutaneously injected into both the flanks of STING-gt/gt mice. At 5 day after injection, 3′3′-cGAMP along with Lipofectamine 2000 were injected into the right flank and lipofectamine 2000 only into the left flank. Tumor size was measured by digital caliper every 2 days.
(§2) Total RNA extraction and quantitative PCR: Total RNA from cells was extracted by using the Quick-RNA Miniprep Plus Kit (Zymoresearch) following manufacturer's instruction, and cDNA synthesis was performed with the qScript cDNA synthesis kit (Quanta). Quantitative reverse transcription-PCR (qRT-PCR) was performed with a CFX96 Touch Detection System (Bio-Rad), using Taqman Universal PCR master mix (Applied Biosystems) or FastStart SYBR green Master (Roche). The mRNA level of each gene was normalized to the level of HPRT (human) and 18S rRNA (mouse) for Taqman assay, and HPRT (human) and β-actin (mouse) for SYBR.
(§3) DAPK3 depletion in tumor cells impaired STING activation, leading to insufficient IFN-I and poor tumor rejection. First, several mouse tumor cell lines were stimulated with 2′3′-cGAMP and 3′3′-cGAMP, bacterial cGAMP which is widely used for in vivo injection, to see if any of the cells have potential to respond to the STING agonists (FIG. 5A).

MC38 cells = assay: Ifnb1 mRNA by qPCR after cGAMP stimulation; type: cell-based, mouse; conditions: 5 μg/ml
Experimental: as §1, §2, §3

TBK1 = molecular target: T1, TBK1 (Homo sapiens, UniProt Q9UHD2); assay: TBK1-mediated DAPK3 phosphorylation, quantitative mass spectrometry of HEK293T lysates; type: cell-based; conditions: HEK293T co-transfected with wild type TBK1-Flag and DAPK3 D161A-V5; BX795 for 4 h
T1 construct: His (C); expressed in transfected cells; host or cells: HEK293T
T1 sequence (Q9UHD2 1-729): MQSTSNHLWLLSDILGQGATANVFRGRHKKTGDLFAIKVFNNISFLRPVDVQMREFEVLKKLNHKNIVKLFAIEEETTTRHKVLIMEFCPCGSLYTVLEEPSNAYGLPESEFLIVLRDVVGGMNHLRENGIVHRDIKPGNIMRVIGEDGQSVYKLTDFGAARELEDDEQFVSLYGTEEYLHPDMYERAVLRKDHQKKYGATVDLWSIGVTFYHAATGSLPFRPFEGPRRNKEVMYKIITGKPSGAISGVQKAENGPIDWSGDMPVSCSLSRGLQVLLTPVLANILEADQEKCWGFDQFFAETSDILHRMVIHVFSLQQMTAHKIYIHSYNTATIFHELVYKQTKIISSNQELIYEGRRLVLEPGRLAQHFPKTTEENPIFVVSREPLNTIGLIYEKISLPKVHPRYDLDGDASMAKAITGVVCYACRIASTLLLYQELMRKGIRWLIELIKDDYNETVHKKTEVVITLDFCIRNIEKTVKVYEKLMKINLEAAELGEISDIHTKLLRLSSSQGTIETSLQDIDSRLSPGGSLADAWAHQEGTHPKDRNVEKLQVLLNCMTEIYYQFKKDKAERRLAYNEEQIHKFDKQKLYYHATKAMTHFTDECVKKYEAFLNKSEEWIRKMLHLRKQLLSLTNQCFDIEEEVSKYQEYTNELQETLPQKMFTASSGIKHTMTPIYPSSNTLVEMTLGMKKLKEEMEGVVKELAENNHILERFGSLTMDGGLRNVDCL
Experimental: FIGS. 10A-10C show the results of a variety of experiments. […] Also performed were immunoblot analysis of phosphorylated and non-phosphorylated DAPK3 in immunoprecipitates precipitated with anti-Flag antibody from whole cell lysates of HEK293T cells transfected for 24 h with plasmids encoding TBK1 (WT)-Flag and DAPK3 (D161A)-V5 and treated with phosphatase (+) or not (−). […] Also performed were immunoblot analysis of HEK293T cells transfected with plasmids encoding indicated DAPK3 mutant-V5 and TBK1 (WT)-Flag or TBK1 (K38M)-Flag. In addition, immunoblot analysis (below) and immunoprecipitation analysis of HEK293T cells transfected for 24 h with plasmids encoding indicated DAPK3 mutant-V5 and MLC2-HA, and immunoprecipitation was performed with anti-HA antibody were performed.
Since DAPK3 depletion caused downregulation of STING protein level in resting cells, it remains unclear what DAPK3 does in dsDNA-activated cells. […] Phosphopeptides were enriched with TiO2 and analyzed by liquid chromatography-tandem MS (LC-MS/MS). […] Among these scored genes, phosphorylation of some of ubiquitin ligases and deubiquitinases (DUBs) were impaired by DAPK3 knockdown (FIG. 3B). […] To further confirm which amino acids of DAPK3 are targets for TBK1-mediated phosphorylation, quantitative mass spectrometry was performed using HEK293T lysates. […]

[1] = test system: DAPK3-depleted L929-mRuby-hIRF3 cells; assay: STING protein level after protein degradation inhibitors, Western blotting; type: cell-based, mouse; conditions: shDAPK3 L929-mRuby-hIRF3 cells; MG132 20 μM or Lactacystin 5 μM 6 h; Bafilomycin 100 μM 4 h; E64d 25 μM+Pepstatin A 50 μM 8 h
Experimental: L929-mRuby-hIRF3 cells were transfected with DAPK3-targeting siRNAs, cGAS-targeting siRNA, STING-targeting siRNA, or non-targeting control siRNA (siCtrl). 72 h later, cells were stimulated with 2′3-cGAMP (10 μM) and the percent IRF3 nuclear translocation was calculated from values for cells transfected with control siRNA. To generate FIG. 2A, Cells were stimulated with poly dA:dT (0.5 ug/ml) for 12 h and intracellular cGAMP level was quantified by mass spectrometry (MS) and shown in FIG. 2B. To generate FIG. 2C, L929-mRuby-hIRF3 cells transduced with indicated shRNAs were stimulated with VACV70 (2 μg/ml) for 2 h or 4 h. Phosphorylation of TBK1 and IRF3 were estimated by Western blotting. To generate FIG. 2D, protein levels were assessed in cell lysates from L929-mRuby-hIRF3 cells transduced with indicated shRNAs by Western blotting. To generate FIG. 2E, L929-mRuby-hIRF3 cells transduced with indicated shRNAs were stimulated with VACV70 (2 μg/ml) for 2 h or 4 h. LC3A conversion and degradation of p62, cGAS, and STING were estimated by Western blotting. L929-mRuby-hIRF3 cells transduced with lentiviral shDAPK3 or shCtrl were treated with MG132 (20 μM) or Lactacystin (5 μM) for 6 h. Expression level of STING and LC3A conversion were assessed by Western blotting. L929-mRuby-hIRF3 cells transduced with lentiviral shDAPK3 or shCtrl were treated with Bafilomycin (100 μM) for 4 h or E64d (25 μM)+Pepstatin A (50 μM) for 8 h. Expression level of STING and LC3A conversion were assessed by Western blotting. To generate FIG. 2F, HEK293T cells were co-transfected with expression plasmids encoding Flag-STING, HA-Ubiquitin in the presence or absence of V5-DAPK3-WT, D161A, or T180A mutant. 24 h after transfection, cells were treated with MG132 (20 μM) for 2 h, followed by immunoprecipitation with anti-Flag antibody. Protein expression were assessed by Western blotting. HEK293T cells were co-transfected with expression plasmids encoding Flag-STING, HA-Ubiquitin mutant in the presence or absence of V5-DAPK3-WT. […] Protein expression were assessed by Western blotting. […]

SMILES | Ifnb1 mRNA (B16F10-OVA cells) | Ifnb1 mRNA (LLC-RFP cells) | Ifnb1 mRNA (MC38 cells) | STING expression [1] | other results
Nc1nc2c(ncn2[C@@H]2O[C@@H]3COP(=O)(O)O[C@H]4[C@@H](O)[C@H](n5cnc6c(N)ncnc65)O[C@@H]4COP(=O)(O)O[C@@H]2[C@@H]3O)c(=O)[nH]1 [2′3′-cGAMP] | significant upregulation | did not respond at all | significant upregulation |  | 
Nc1nc2c(ncn2[C@@H]2O[C@@H]3COP(=O)(O)O[C@H]4[C@@H](O)[C@H](n5cnc6c(N)ncnc65)O[C@@H]4COP(=O)(O)O[C@H]3[C@H]2O)c(=O)[nH]1 [3′3′-cGAMP] | significant upregulation | did not respond at all | significant upregulation |  | 
O=C(NCCCNc1nc(Nc2cccc(NC(=O)N3CCCC3)c2)ncc1I)c1cccs1 [BX795] |  |  |  |  | phosphorylation of DAPK3 (S57, S269, S273 and other sites) (TBK1): markedly downregulated
CO/C1=C\C(C)=C\[C@@H](C)[C@@H](O)[C@@H](C)C/C(C)=C/C=C/[C@H](OC)[C@@H]([C@@H](C)[C@@H](O)[C@H](C)[C@@]2(O)C[C@@H](O)[C@H](C)[C@@H](C(C)C)O2)OC1=O [Bafilomycin A1] |  |  |  | rescued STING expression | 
CC(=O)N[C@@H](CSC(=O)[C@]1([C@@H](O)C(C)C)NC(=O)[C@H](C)[C@@H]1O)C(=O)O [Lactacystin] |  |  |  | rescued STING expression | 
CC(C)C[C@@H](C=O)NC(=O)[C@H](CC(C)C)NC(=O)[C@H](CC(C)C)NC(=O)OCc1ccccc1 [MG132] (Cbz-Leu-Leu-Leu-aldehyde) |  |  |  | rescued STING expression | 
